These results are taken from patent US11730712B2, “Functionalized long-chain hydrocarbon mono- and di-carboxylic acids and derivatives thereof, and their use for the prevention or treatment of disease” (ESPERVITA THERAPEUTICS, INC., priority 2021, dated 2023).

One data set concerns mouse kidney. Description: Kidney histology in DEN NASH-HCC mice after 4 weeks of treatment. It counts as in vivo. Also noted: key to Tubular injury score, Average / Tubular mitoses score, Average / Tubular vacuoles score, Average / Interstitial inflammation score, Average / Interstitial fibrosis score, Average / Glomerular score, Average: 0 = not present to 5 = severe, overwhelming change; mean of mice; key to Tubular mitoses score, individual mice / Interstitial inflammation score, individual mice / Interstitial fibrosis score, individual mice / Glomerular score, individual mice / Tubular injury score, individual mice / Tubular vacuoles score, individual mice: 0—not present; 1—minimal, inconspicuous change; 2—slight, noticeable but not a prominent feature; 3—moderate, prominent feature; 4—marked, dominant but not overwhelming feature; 5—severe, overwhelming change. Particulars: for Glomerular score, individual mice / Interstitial fibrosis score, individual mice / Interstitial inflammation score, individual mice / Tubular injury score, individual mice / Tubular mitoses score, individual mice / Tubular vacuoles score, individual mice / Glomerular score, Average / Interstitial fibrosis score, Average / Interstitial inflammation score, Average / Tubular injury score, Average / Tubular mitoses score, Average / Tubular vacuoles score, Average: kidney; for Glomerular score, Average / Interstitial fibrosis score, Average / Interstitial inflammation score, Average / Tubular injury score, Average / Tubular mitoses score, Average / Tubular vacuoles score, Average: 8 mice. The protocol: Kidney Histology. Following fixation with 10% neutral buffered formalin for 46 hours, kidneys were cleaved longitudinally through hilium and immersed in 70% ethanol. Kidneys were then processed, paraffin embedded, serially sectioned and stained with haematoxylin and eosin (H&E) and Masson's Trichrome (MTC) by the McMaster Immunology Research Centre histology Core Facility. Blinded kidney histological scores for tubular injury, tubular mitoses, tubular vacuoles, interstitial inflammation, interstitial fibrosis, glomerular were assigned by pathologists.
Kidney Histology. […] In Table 15, pathologist's scoring is as follows: 0—not present; 1—minimal, inconspicuous change; 2—slight, noticeable but not a prominent feature; 3—moderate, prominent feature; 4—marked, dominant but not overwhelming feature; 5—severe, overwhelming change.

For data set [1], the system named is Hep3B human hepatocarcinoma cells. Description: Cell proliferation assay (presto blue, 72 h). It counts as cell-based. Particulars: for Hep3B cell proliferation compared to control, compound alone: 100 μM; for Hep3B cell proliferation compared to control, compound alone / pIC50 / inhibition of Hep3B cell proliferation in combination with lenvatinib vs each agent alone / inhibition of Hep3B cell proliferation in combination with regorafenib vs individual effects / inhibition of Hep3B cell proliferation in combination with sorafenib vs each agent alone: 72 h; for pIC50: Homo sapiens, Hep3B, read-out: Hep3B (IC50), anti-proliferation activity; for inhibition of Hep3B cell proliferation in combination with lenvatinib vs each agent alone: compound 100 μM + lenvatinib 0.5 μM; for inhibition of Hep3B cell proliferation in combination with regorafenib vs individual effects: compound 100 μM + regorafenib 1.5 μM; for inhibition of Hep3B cell proliferation in combination with sorafenib vs each agent alone: compound 100 μM + sorafenib 3 μM. The protocol: Cell cultures. Hep3B (ATCC) and Hepa1-6 (ATCC) cells were seeded in 96-well plates at a density of 3000 cells/well with complete media. On day 2, media in each well was aspirated and replaced with 100 μl of fresh complete media and cells were treated with or without Compound I-1, Compound I-32, Compound I1-84, and Compound I-85, in a concentration dependent manner. Then, cells were incubated in an incubator for 72 h. On day 5, 10 μl of presto blue (Invitrogen, cat #A13261) cell viability reagent was added in each 96-well plate and incubated at 37° C. for 1-2 h. After incubation, fluorescence was measured with an excitation/emission wavelength of 560/590 nm.
Proliferation assay. Hep3B (ATCC) and Hepa1-6 (ATCC) cells were seeded in 96-well plates at a density of 3000 cells/well with complete media. On day 2, media in each well was aspirated and replaced with 100 μl of fresh complete media and cells were treated with/without testing compounds in a concentration dependent manner. Then, cells were incubated in an incubator for 72 h. On day 5, 10 μl of presto blue (Invitrogen, cat #A13261) cell viability reagent was added in each 96-well plate and incubated at 37° C. for 1-2 h. After incubation, fluorescence was measured with an excitation/emission wavelength of 560/590 nm. Anti-proliferative combination effects of Compound I-1 or Compound I-32 and regorafenib were determined in Hep3B and Hepa1-6 cells. Drug combination interaction was determined by the Chou-Talalay method (23), which is based on well-known equations for different reaction sequences and mechanisms, and different types of inhibition. These equations provide the theoretical basis for the combination index (CI)-isobologram equation that allows quantitative determination of drug interactions, where CI<1, =1, and >1 indicate synergism, additive effect, and antagonism, respectively. CI is calculated based on in vitro measurements implemented in the Compusyn software (www.combosyn.com), a platform for drug combinations pharmacodynamics with automated simulations. The software calculates CI based on the Fractional Inhibition (Fa), which is the potency expressed by the average effect values for each drug concentrations as determined by in vitro experiments. The dose-effect data entries are utilized for automated computerized analysis by the Compusyn software.
Data entered was obtained by in vitro experiments performed as follows: Hep3B or Hepa 1-6 cells were plated in a 96-well format and cell proliferation rates were determined as described above. Cells were treated with 5 doses of each test agent alone at the following concentrations: compounds of the invention dosed at 1, 5, 10, 50, or 100 μM for both Hep3B and Hepa1-6 cells, regorafenib dosed at 0.015, 0.075, 0.15, 0.75, and 1.5 μM for Hep3B cells or 0.05, 0.25, 0.5, 2.5, 5 μM for Hepa 1-6 cells. […]. Data are shown as Fa-CI plots where CI is the combination index and Fa is fractional inhibition. Results were indicated as mean±standard deviation (SD). All bar diagrams and line graphs were prepared using Graph Pad Prism 8 software. Drug synergy was calculated using the CompuSyn software.
Methods: Hep3B cells (supplied by ATCC) and Hepa1-6 cells (supplied by ATCC) were seeded in 96-well plates at a density of 3000 cells/well with complete media. On day 2, the media in each well was aspirated and replaced with 100 μL of fresh complete media, and the cells were treated in a concentration dependent manner with either Compound I-1, Compound I-32, Compound I-84, Compound I-85, sorafenib, lenvatinib, Compound I-1 in combination with sorafenib. Compound I-1 in combination with lenvatinib, Compound I-32 in combination with sorafenib, or Compound I-32 in combination with lenvatinib. The cells were then incubated in an incubator at 37° C. for 72 h. On day 5, 10 μL of presto blue (Invitrogen, cat #A13261) cell viability reagent was added to each 96-well plate and incubated at 37° C. for 1-2 h. […]

Data set [2] has as its system expanded HSPC / megakaryocytes. The data set is described as follows: Platelet production from expanded HSPC cultured into megakaryocytes. The class given is cell-based. Particulars: added to expanded HSPC at day 0 or day 6, cultured into megakaryocytes for 8 days. The protocol:
Compound I-32 (A) and Compound I-1 (B) were added to expanded HSPC at day 0 (FIGS. 25A-25E) as they were cultured into megakaryocytes for 8 days or at day 6 (FIGS. 25F-25J). CD41a cell count (FIG. 25A), CD41aCd42b+ cell count (FIG. 25B), platelet levels (FIG. 25C), CD41a MFI (FIG. 25D) and CD41a FSC cell size (FIG. 25E) were analyzed at day 0. CD41a cell count (FIG. 25F), CD41aCd42b+ cell count (FIG. 25G), platelet levels (FIG. 25H), CD41a MFI (FIG. 25I) and CD41a FSC cell size (FIG. 25J) were analyzed at day 6.

pIC50: −log10 of the molar value. Several values for one entry are separate records, joined by “and”; a condition that tells them apart may be missing. Identical values can stand only once.

Consider `CC(C)(CCCCc1ccc(CCCCC(C)(C)C(=O)O)cc1)C(=O)O` [Compound I-1, 6-[4-(5-carboxy-5-methylhexyl)-phenyl]-2,2-dimethylhexanoic acid], for which, in the data set on mouse kidney, the “kidney pathological differences vs Vehicle” value is given as “no pathological differences”; the “Glomerular score, individual mice” value is 0 (3×) and 1 (2×) and 0.5 (3×); the “Interstitial fibrosis score, individual mice” value is 1 (4×) and 0.5 (2×) and 0 and 1.5; the “Interstitial inflammation score, individual mice” value is 0 (5×) and 0.5 (3×). In the data set with mouse kidney, the “Tubular injury score, individual mice” value was 1.5 and 1 and 0.5 (4×) and 0 (2×); the “Tubular mitoses score, individual mice” value was 1 and 0 (3×) and 0.5 (4×); the “Tubular vacuoles score, individual mice” value is 3.5 and 1.5 (3×) and 3 and 0.5 (2×) and 1; the “Glomerular score, Average” value stood at 0.44. For the same molecule, in the data set with mouse kidney, the “Interstitial fibrosis score, Average” value came to 1.0; the “Interstitial inflammation score, Average” value came to 0.19; the “Tubular injury score, Average” value was 0.56; the “Tubular mitoses score, Average” value is given as 0.38. Besides, the “Tubular vacuoles score, Average” value in the data set on mouse kidney came out at 1.63. Besides, in data set [1], the “Hep3B cell proliferation compared to control, compound alone” value is “inhibited Hep3B cell proliferation compared to control”; the pIC50 is < 4.00; the “inhibition of Hep3B cell proliferation in combination with lenvatinib vs each agent alone” value is recorded as “significantly greater inhibition of Hep3B cell proliferation”; the “inhibition of Hep3B cell proliferation in combination with regorafenib vs individual effects” value was “greater inhibition of cell proliferation compared to their individual effects”. Also, the “inhibition of Hep3B cell proliferation in combination with sorafenib vs each agent alone” value in data set [1] is reported as “significantly greater inhibition of Hep3B cell proliferation”. Further, the “synergism with sorafenib (CompuSyn CI), Hep3B cells” value in data set [1] (compound 5 μM and sorafenib 0.15 μM) is reported as “Modest synergism”. In data set [1] (compound 10 μM and lenvatinib 0.05 μM), the “synergism with lenvatinib (CompuSyn CI), Hep3B cells” value is recorded as “Moderate synergism”. Besides, the “synergism with lenvatinib (CompuSyn CI), Hep3B cells” value in data set [1] (compound and lenvatinib: 50 μM and 0.25 μM, 100 μM and 0.5 μM) is “significant synergism”. Further, in data set [1] (compound and sorafenib: 1 μM and 0.03 μM, 50 μM and 1.5 μM, 100 μM and 3 μM), the “synergism with sorafenib (CompuSyn CI), Hep3B cells” value is recorded as “significant synergism”. The platelet production result in data set [2] is “do not significantly affect”.

In the case of `CC(C)(CCCCc1cccc(CCCCC(C)(C)C(=O)O)c1)C(=O)O` [Compound I-32, 6-[3-(5-carboxy-5-methylhexyl)-phenyl]-2,2-dimethylhexanoic acid], in the data set on mouse kidney, the “kidney pathological differences vs Vehicle” value is on record as “no pathological differences”; the “Glomerular score, individual mice” value was 0 and 0.5 (5×) and 1 (2×); the “Interstitial fibrosis score, individual mice” value was 0.5 (2×) and 1 (3×) and 2 and 1.5 (2×); the “Interstitial inflammation score, individual mice” value was 0 (3×) and 2.5 and 1 and 1.5 and 0.5 (2×). Moreover, in the data set with mouse kidney, the “Tubular injury score, individual mice” value was 0 (3×) and 1.5 (4×) and 1; the “Tubular mitoses score, individual mice” value was 0 (4×) and 1 (2×) and 0.5 (2×); the “Tubular vacuoles score, individual mice” value was 0.5 and 3.5 and 1.5 and 3 and 2 and 1 (3×); the “Glomerular score, Average” value came to 0.56. In the data set with mouse kidney, the “Interstitial fibrosis score, Average” value worked out at 1.13; the “Interstitial inflammation score, Average” value amounted to 0.75; the “Tubular injury score, Average” value turned out to be 0.88; the “Tubular mitoses score, Average” value stood at 0.38. In addition, the “Tubular vacuoles score, Average” value in the data set with mouse kidney worked out at 1.69. In addition, in data set [1], the “Hep3B cell proliferation compared to control, compound alone” value is on record as “inhibited Hep3B cell proliferation compared to control”; the pIC50 is < 4.00; the “inhibition of Hep3B cell proliferation in combination with lenvatinib vs each agent alone” value was “significantly greater inhibition of Hep3B cell proliferation”; the “inhibition of Hep3B cell proliferation in combination with regorafenib vs individual effects” value is “greater inhibition of cell proliferation compared to their individual effects”. In addition, the “inhibition of Hep3B cell proliferation in combination with sorafenib vs each agent alone” value in data set [1] is on record as “significantly greater inhibition of Hep3B cell proliferation”. In data set [1] (all tested concentrations: 1 μM and 0.05 μM, 5 μM and 0.15 μM, 10 μM and 0.3 μM, 50 μM and 1.5 μM, 100 μM and 3 μM), the “synergism with sorafenib (CI), Hep3B cells” value was “synergism”. The “synergism with lenvatinib (CompuSyn CI), Hep3B cells” value in data set [1] (compound 5 μM and lenvatinib 0.025 μM) is recorded as “Modest synergism”. In addition, the “synergism with lenvatinib (CompuSyn CI), Hep3B cells” value in data set [1] (compound and lenvatinib: 1 μM and 0.005 μM, 10 μM and 0.05 μM, 50 μM and 0.25 μM, 100 μM and 0.5 μM) is listed as “significant synergism”. In data set [2], the platelet production entry is on record as “do not significantly affect”.
